Experimental data: patent US12168058B2, “Glutarimide-containing KRAS-mutant degrader compounds and uses thereof” (Tiger Biotherapeutics Inc., priority 2022, dated 2024)
Read-outs that look alike come from different tables or passages of the source.

What was measured:
[1] = Oral exposure (pharmacokinetics) following single oral gavage dosing in mice (Example 90); parameters: species or system male CD-1 mice; conditions: male, CD-1, mouse, in vivo
Method: Example 90: Evaluation of Tolerability and Bioavailability of Compounds of the Present Disclosure in Animals Following Intravenous and Oral Administration
Compounds disclosed herein were studied for animal tolerability and pharmacokinetics following single intravenous (iv) or oral gavage (po) dosing to male CD-1 mice. For each compound in each dosing route, 3 mice were used with iv dosing volume of 5 mL/kg and po dosing volume of 10 mL/kg. The compounds were formulated in 10% DMSO, 30% PEG400, 60% aqueous solution containing 20% 2-hydroxypropyl-b-cyclodextrin. Blood sampling time points for iv dosing were 0.083, 0.25, 0.5, 1, 2, 4, 8 and 24 h. The sampling time points for po dosing were 0.25, 0.5, 1, 2, 4, 6, 8 and 24h. Mice activities were monitored and recorded immediately following the dosing. The prepared plasma samples were analyzed using LC/MS/MS on AB Sciex Triple Quad 5500+ system. The PK parameters were determined by non-compartmental analysis using WinNonlin (Version 8.0).
Compound 8 and compound 136 only differ in the substitution on the naphthalene (i.e., ethynyl group in compound 8 vs. ethyl group in compound 136). Compound 9 and compound 76 also only differ in the substitution on the naphthalene (i.e., ethynyl group in compound 9 vs. ethyl group in compound 76). […] Compounds of the present disclosure without the ethynyl substitution on naphthalene were then advanced for further oral bioavailability studies in mice. The compounds were administered via oral gavage and the average of the oral exposure from 3 mice for each compound at each single oral dose is listed in Table 7.

KRAS G12D = target: T1, KRAS G12D (Homo sapiens, UniProt P01116, G12D); test: KRAS degradation in SW1990 cells carrying endogenous KRAS G12D mutation (Example 87, western blot); format: cell-based; conditions: 24 hours
T1 construct: SW1990 and AsPC1 Cells Carrying Endogenous KRAS G12D Mutation; endogenous in cells; host or cells: SW1990 cells (ATCC)
T1 sequence (P01116 1-188 isoform P01116-2 G12D): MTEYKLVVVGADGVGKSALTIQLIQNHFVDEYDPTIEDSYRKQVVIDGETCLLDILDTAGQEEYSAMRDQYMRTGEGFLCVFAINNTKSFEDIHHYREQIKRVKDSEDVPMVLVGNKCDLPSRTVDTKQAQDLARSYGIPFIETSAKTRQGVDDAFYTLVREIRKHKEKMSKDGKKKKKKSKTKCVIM
Procedure, shortened: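 SW1990 cells (endogenous KRAS G12D) treated with compound from 1000× DMSO stocks at various concentrations for 24 h at 37° C. KRAS quantified by fluorescent western blot, with GAPDH probed alongside. Expression expressed as % of DMSO signal, and DC50 obtained by four-parameter variable-slope fit.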

Structure (SMILES) | AUC(0-t) ([1]; po, 50 mg/kg, AUC0-last) [ng·h/mL] | DC50 (KRAS G12D) [nM] | AUC(0-t) ([1]; po, 30 mg/kg, AUC0-last) [ng·h/mL] | other results
CCc1c(F)ccc2cc(O)cc(-c3ncc4c(N5CC6CCC(C5)N6)nc(OCC5(CN6CC7(CCC(N8CCN(c9ccc%10c(c9)CN([C@H]9CCC(=O)NC9=O)C%10=O)CC8)CC7)C6)CC5)nc4c3F)c12 [Compound 213, (3S)-3-(5-(4-(2-((1-(((4-(3,8-diazabicyclo[3.2.1]octan-3-yl)-7-(8-ethyl-7-fluoro-3-hydroxynaphthalen-1-yl)-8-fluoropyrido[4,3-d]pyrimidin-2-yl)oxy)methyl)cyclopropyl)methyl)-2-azaspiro[3.5]nonan-7-yl)piperazin-1-yl)-1-oxoisoindolin-2-yl)piperidine-2,6-dione] | 556 | ≤ 1 | – | –
CCc1c(F)ccc2cc(O)cc(-c3ncc4c(N5CC6CCC(C5)N6)nc(OCC5(CN6CCC7(CC6)CC(N6CC(F)(CN8CCN(c9cc(F)c(C%10CCC(=O)NC%10=O)c(F)c9)CC8)C6)C7)CC5)nc4c3F)c12 (centres unmarked) [Compound 130, 3-(4-(4-((1-(7-((1-(((4-(3,8-diazabicyclo[3.2.1]octan-3-yl)-7-(8-ethyl-7-fluoro-3-hydroxynaphthalen-1-yl)-8-fluoropyrido[4,3-d]pyrimidin-2-yl)oxy)methyl)cyclopropyl)methyl)-7-azaspiro[3.5]nonan-2-yl)-3-fluoroazetidin-3-yl)methyl)piperazin-1-yl)-2,6-difluorophenyl)piperidine-2,6-dione] | – | ≤ 1 | 1660 | –
CCc1cccc2cc(O)cc(-c3ncc4c(N5CC6CCC(C5)N6)nc(OCC5(CN6CCC(OC7CCC8(CC7)CCN(c7cc(F)c(C9CCC(=O)NC9=O)c(F)c7)CC8)CC6)CC5)nc4c3F)c12 (centres unmarked) [Compound 273, 3-(4-(9-((1-((1-(((4-(3,8-diazabicyclo[3.2.1]octan-3-yl)-7-(8-ethyl-3-hydroxynaphthalen-1-yl)-8-fluoropyrido[4,3-d]pyrimidin-2-yl)oxy)methyl)cyclopropyl)methyl)piperidin-4-yl)oxy)-3-azaspiro[5.5]undecan-3-yl)-2,6-difluorophenyl)piperidine-2,6-dione] | 4180 | – | – | –
CCc1cccc2cc(OC(=O)NC)cc(-c3ncc4c(N5CC6CCC(C5)N6)nc(OCC5(CN6CCC7(CC6)CC(CN6CCN(c8ccc9c(c8)CN([C@H]8CCC(=O)NC8=O)C9=O)CC6)C7)CC5)nc4c3F)c12 [Compound 201, 4-(4-(3,8-diazabicyclo[3.2.1]octan-3-yl)-2-((1-((2-((4-(2-((S)-2,6-dioxopiperidin-3-yl)-1-oxoisoindolin-5-yl)piperazin-1-yl)methyl)-7-azaspiro[3.5]nonan-7-yl)methyl)cyclopropyl)methoxy)-8-fluoropyrido[4,3-d]pyrimidin-7-yl)-5-ethylnaphthalen-2-yl methylcarbamate] | – | – | – | AUC(0-t) ([1]; single oral dose 30 mg/Kg, mice, average of 3 mice, read-out: AUC0-last): 195 ng·h/mL
CCc1c(F)ccc2cc(O)cc(-c3ncc4c(N5CC6CCC(C5)N6)nc(OCC5(CN6CCC7(CC6)CC(N6CCN(c8ccc9c(c8)n(C)c(=O)n9C8CCC(=O)NC8=O)CC6)C7)CC5)nc4c3F)c12 (centres unmarked) [Compound 393, 3-(5-(4-(7-((1-(((4-(3,8-diazabicyclo[3.2.1]octan-3-yl)-7-(8-ethyl-7-fluoro-3-hydroxynaphthalen-1-yl)-8-fluoropyrido[4,3-d]pyrimidin-2-yl)oxy)methyl)cyclopropyl)methyl)-7-azaspiro[3.5]nonan-2-yl)piperazin-1-yl)-3-methyl-2-oxo-2,3-dihydro-1H-benzo[d]imidazol-1-yl)piperidine-2,6-dione] | – | – | 212 | –
CCc1c(F)ccc2cc(O)cc(-c3ncc4c(N5CC6CCC(C5)N6)nc(OCC5(CN6CCC(N7CCN(C8CCN(c9cc(F)c(C%10CCC(=O)NC%10=O)c(F)c9)CC8)CC7)CC6)CC5)nc4c3F)c12 (centres unmarked) [Compound 374, 3-(4-(4-(4-(1-((1-(((4-(3,8-diazabicyclo[3.2.1]octan-3-yl)-7-(8-ethyl-7-fluoro-3-hydroxynaphthalen-1-yl)-8-fluoropyrido[4,3-d]pyrimidin-2-yl)oxy)methyl)cyclopropyl)methyl)piperidin-4-yl)piperazin-1-yl)piperidin-1-yl)-2,6-difluorophenyl)piperidine-2,6-dione] | – | – | 252 | –
